Measured values as given in patent US8119116B2, “Therapeutics for cancer using 3-bromopyruvate and other selective inhibitors of ATP production” (John Hopkins University School of Medicine, priority 2001, dated 2012).

What was measured:
[1] = test system: VX2 tumor slices; assay: Glycolysis (lactic acid formation) in VX2 tumor slices; format: cell-based, rabbit; details: for inhibition of VX2 tumor glycolysis in the limited screen: 6 mM agent, 6 mM glucose, 37° C., 5 h
Protocol: Glycolysis was assayed by monitoring the formation of lactic acid following the addition of glucose to a medium containing VX2 tumor slices. Specifically, freshly excised tumors were washed 3 times at 4° C. in 20 ml Chance Hess Medium containing 6.2 mM KCl, 154 mM NaCl, and 11 mM NaPi, pH 7.4. Slices, 1 g each, were then prior incubated for 30 min in a Lab-Line incubator-shaker at 37° C. in 2 ml of the same medium while shaking at 50 rpm. Glucose was then added to give a final concentration of 6 mM, after which the incubation/shaking process was continued with 0.2 ml samples being removed every 30 min for up to 2 h. These samples were subjected to centrifugation at 14,000 rpm in an Eppendorf Centrifuge (Model 5415C). Then, aliquots of the supernatant, 0.01 ml, were removed from each sample, diluted with 0.03 ml of water and subjected to lactic acid determination using the kit supplied by Sigma. The latter contains, in addition to lactic dehydrogenase and NAD+, hydrazine, and glycine buffer, pH 9.2. The mixture was incubated for 30 min at 25° C. after which the absorbance due to formation of NADH was determined at 340 nm using a Gilford Model 260 spectrophotometer. To assess the elevation of the glycolytic activity of the VX2 tumor over that of liver tissue, parallel studies were always carried out in an identical manner with 1 g liver slices derived from the host liver. Finally, in those cases where agents were tested for their capacity to inhibit glycolysis, these were introduced into the system at the prior incubation step with all subsequent steps being run in parallel with those described above for the VX2 tumor or liver alone.
The screen included the following 9 compounds: 2-deoxyglucose (2DOG), 2-fluoro-2-deoxyglucose, 6-fluoro-6-deoxyglucose, 3-O-methyl glucose, 5-thio-D-glucose-6-phosphate, L-glucose, D-xylose, D-lyxose, and 3-bromopyruvic acid (3BrPA). The screen was conducted by incubating VX2 tumor slices in a medium containing 6 mM glucose with 6 mM of each of these agents at 37° C. for 5 h. The use of 6 mM glucose in the medium was used to mimic the maximal amount of glucose that might be in the blood in a real in vivo situation.
With the above preliminary data at hand, only two of the 9 compounds screened were studied in more detail. One was 2DOG because under certain conditions it is known to inhibit glycolysis when it is phosphorylated by hexokinase to 2DOG-6-P which cannot be further metabolized. The other compound tested in more detail was 3BrPA because of its effectiveness as a glycolytic inhibitor in the preliminary screen.

[2] = test system: AS-30D hepatoma cells; assay: Hepatoma cell viability by trypan blue; format: cell-based, rat; details: 20 mM, 12 h
Protocol: AS-30D hepatoma cells grown in the peritoneal cavity of Sprague Dawley female rats (see Materials) were adapted to grow in tissue culture in Dulbecco's modified Eagle's medium containing 10% fetal bovine serum. Cells were maintained at 37° C. in a humidified atmosphere containing 5% CO2, and counted in a Neubauer chamber after trypan blue dye addition (cell/dye volume=1/1) by visualization under a Nikon inverted microscope.
The studies described above using the VX2 tumor model for liver cancer predict that 2DOG and 3BrPA may have the capacity to kill hepatoma cells expressing the high glycolytic/high hexokinase phenotype. […] Cell killing was assessed in these experiments by counting those cells in which trypan blue had entered.

Compound | inhibition of VX2 tumor glycolysis in the limited screen [1] | also measured
O=C[C@H](F)[C@@H](O)[C@H](O)[C@H](O)CO [2-fluoro-2-deoxyglucose] | ineffective | –
O=CC[C@@H](O)[C@H](O)[C@H](O)CO [2DOG, 2-deoxyglucose] | ineffective | IC50 ([1]; Oryctolagus cuniculus, 0.5 h, VX2 tumor slices, agent prior incubated 30 min at 37° C., read-out: half maximal inhibition of glycolysis): ~15 mM; concentration for maximal or complete inhibition of glycolysis ([1]; VX2 tumor slices, agent prior incubated 30 min at 37° C.): ~50 mM; maximal inhibition of glycolysis ([1]; VX2 tumor slices, at almost 50 mM): 70%; cells killed (trypan blue uptake) [2]: about 80%
CO[C@@H]([C@H](O)[C@H](O)CO)[C@@H](O)C=O [3-O-methyl glucose] | ineffective | –
O=C[C@H](O)[C@@H](O)[C@H](O)[C@H](S)COP(=O)(O)O [5-thio-D-glucose-6-phosphate] | ineffective | –
O=C[C@H](O)[C@@H](O)[C@H](O)[C@H](O)CF [6-fluoro-6-deoxyglucose] | ineffective | –
O=C[C@@H](O)[C@@H](O)[C@H](O)CO [D-lyxose] | ineffective | –
O=C[C@H](O)[C@@H](O)[C@H](O)CO [D-xylose] | ineffective | –
O=C[C@@H](O)[C@H](O)[C@@H](O)[C@@H](O)CO [L-glucose] | ineffective | –
